According to patent US20080125663A1, “Pre-And Intra-Operative Imaging of Testicular Torsion” (University of Rochester Medical Center, priority 2006, published 2008):
“Also recorded” adds a separate entry of the source.

Legend:
mammals = details: cited from earlier work; for neuronal toxicity: used in mammals
[1] = cited from earlier work
testes of a rat = assay: Near IR fluorescence imaging of testicular perfusion after unilateral interruption of blood flow to the right testis; type: in vivo
Description: Intraoperative video angiography is performed with a laser-fluorescence imaging device (Novadaq Technologies, Inc., Toronto, Canada) consisting of a near infrared (NIR) laser light source and a NIR-sensitive digital camcorder. For measurements, the unit is positioned 30 to 40 cm from the area of interest. ICG, dissolved in water, is then injected as a bolus. When ICG is used as the imaging dye, NIR light emitted by the laser light source induces ICG fluorescence. The fluorescence is typically imaged by a video camera, with optical filtering to block ambient and laser light so that only ICG fluorescence is captured. […] Two rats were subjected to unilateral interruption of blood flow to the right testis. In rat A, a bulldog clamp was used, in rat B, a mosquito clamp (a smaller clamp designed to cut off blood flow in small blood vessels) was used. ICG was administered by IV to each rat to determine the ability to visualize the degree to which the testicle underwent hypoperfusion or lack of perfusion. Prior to administration of ICG, rat A was first subjected to near IR and imaged. […] 0.5 ml of ICG at a concentration of 2.5 mg/ml was then administered by IV. The right spermatic cord was clamped with a bulldog clamp to create vascular obstruction and the testicles were imaged.

[2] = bulldog clamp, 0.5 ml of 2.5 mg/ml ICG IV, imaged through the scrotum

Row | Compound | neuronal toxicity (mammals) | distribution ([1]; after intravenous injection, with normal vascular permeability) | time to binding, mainly to globulins (1-lipoproteins) ([1]; after intravenous injection) [s] | enterohepatic recirculation ([1]; in vivo) | excretion ([1]; in vivo) | metabolism in the body ([1]; in vivo) | reabsorption from the intestine ([1]; in vivo) | toxicity (mammals; in vivo) | fluorescence of the right testicle after removal of the clamp (reperfusion) (testes of a rat; bulldog clamp removed from the spermatic cord) | fluorescence of the right testicle during clamp obstruction of the right spermatic cord (testes of a rat; bulldog clamp, 0.5 ml of 2.5 mg/ml ICG IV, exposed testes) | fluorescence of the left hemiscrotum (unclamped side) (testes of a rat; [2]) | fluorescence of the right hemiscrotum (clamped side) (testes of a rat; [2]) | differential perfusion seen after occlusion (testes of a rat; mosquito (vascular) clamp, ICG IV)
1 | N=C(N)c1ccc(/C=C/c2ccc(C(=N)N)cc2O)cc1 [Fluorogold] | low evidence of neuronal toxicity | – | – | – | – | – | – | – | – | – | – | – | –
2 | CC1(C)C(/C=C/C=C/C=C/C=C2\N(CCCCS(=O)(=O)O)c3ccc4ccccc4c3C2(C)C)=[N+](CCCCS(=O)(=O)[O-])c2ccc3ccccc3c21 [ICG, indocyanine green] | low evidence of neuronal toxicity | remains intravascular | 1 to 2 | does not undergo enterohepatic recirculation | excreted exclusively by the liver | not metabolized | not reabsorbed from the intestine | low toxicity | restoration of fluorescence; also recorded: Fluoresence of the right testicle was observed | absence of fluorescence | intense fluorescence | low fluorescence | obvious differential perfusion
3 | Fast Blue | low evidence of neuronal toxicity | – | – | – | – | – | – | – | – | – | – | – | –
